Data published in PMC11429909, “Protein Structure Inspired Discovery of a Novel Inducer of Anoikis in Human Melanoma” (Cancers, 2024).
Entries after “also recorded” stand apart in the source; their conditions may differ.

How the values were obtained:
Format in all cases: cell-based, human
[1] = system: SK-MEL-5 cells; experiment: Adherent versus floating cell quantification from images, SK-MEL-5; conditions: 20 µM, 3-day treatment, mean ± SEM (N = 4), controls 19.5 ± 3.2%
Description: After treatment of M14 and SK-MEL-5 cells with different concentrations of Dxr2-017 or vehicle for 3 or 8 days, as denoted, cell images were captured at 20X in a transmitted light channel using the EVOS™ M5000 Imaging System (Invitrogen (Waltham, MA, USA)). Western blots were performed as previously described by us. Briefly, cells were collected and lysed using RIPA lysis buffer (25 mM Tris-HCl pH 7.6, 150 mM NaCl, 1% NP-40, 1% sodium deoxycholate, and 0.1% SDS; Thermo Scientific^TM (Waltham, MA, USA), #89900), supplemented with protease and phosphatase inhibitor cocktail (Thermo Scientific^TM, #78442) and 1 mM of PMSF. […]
Figure 8 Dxr2-017 inhibits melanoma cell growth through induction of anoikis. […] Data are expressed as the percent of untreated control and are the mean ± SEM of three separate experiments. […] M14 and SK-MEL-5 cells were treated for eight days with 20 nM and 50 nM of Dxr2-017, respectively, and the phase of the cell cycle was determined by flow cytometry. […] (D) Adherent and floating cells were quantified from captured images. Data are the mean ± SEM (N = 4), expressed as a percentage to total cells. * Denotes p-value ≤ 0.05 compared to respective floating or attached cells. […]
We then assessed whether Dxr2-017 induced apoptosis. […]

[2] = system: M14; experiment: Eight-day colony formation assay, melanoma M14
Description: In addition to screens, eight-day colony formation assays were conducted for certain experiments, as denoted. When measuring the effect of 5-fluorouracil (5FU) on HT29 colon cancer cells, the following final 5FU concentrations were examined: 0 (DMSO only), 0.0012, 0.012, 0.12, 0.82, 5.7, 20, and 40 µM. When measuring the effect of Dxr2-017 on melanoma cell growth, the following concentrations were examined: 0 (DMSO only), 0.001, 0.01, 0.1, 1.0, and 10.0 µM. Melanoma studies were performed on M14 and SK-MEL-5 human melanoma cell lines. For each Dxr2-017 concentration for each cell line, there were N = 3 replicates, and experiments were performed a total of 3 separate times (each with N = 3 replicates). The IC50 values were calculated using nonlinear regression analysis. Data from individual experiments were log-transformed and fitted to a dose–response curve using the four-parameter logistic model of GraphPad Prism 10 software. The IC50 values were determined using the dose–response inhibition function. IC50 values from each of three different experiments were used to calculate mean ± SEM.

[3] = system: pan-cadherin; experiment: Western blot for pan-cadherin, M14
Description: (§1) After treatment of M14 and SK-MEL-5 cells with different concentrations of Dxr2-017 or vehicle for 3 or 8 days, as denoted, cell images were captured at 20X in a transmitted light channel using the EVOS™ M5000 Imaging System (Invitrogen (Waltham, MA, USA)). Western blots were performed as previously described by us. Briefly, cells were collected and lysed using RIPA lysis buffer (25 mM Tris-HCl pH 7.6, 150 mM NaCl, 1% NP-40, 1% sodium deoxycholate, and 0.1% SDS; Thermo Scientific^TM (Waltham, MA, USA), #89900), supplemented with protease and phosphatase inhibitor cocktail (Thermo Scientific^TM, #78442) and 1 mM of PMSF. Resultant Western blots were probed using antibodies against cleaved caspase 3 (Cell Signaling Technology (Danvers, MA, USA), #9664), pan-cadherin (Cell Signaling Technology, #4068), and β-actin (Santa Cruz (Santa Cruz, CA, USA), #sc-47778).
These findings led us to compare cleaved caspase 3 between adherent cells and floating cells. Cleaved caspase 3 is an indicator of programmed cell death, and its triggering by loss of cell attachment is an established means of detecting anoikis. Adherent cells were prepared as above. […]

[4] = system: NCI-60 cell lines; experiment: NCI-60 cell line screen; conditions: 48 h at 10 µM
Description: The above findings support the importance of Dxr2 and FolC2 sites, and of Dxr2-017 and FolC2-001 compounds, respectively. The NCI-60 cell line screen evaluates compound growth inhibition and cell toxicity in a highly standardized manner across 60 different cell lines. Dxr2-017 and FolC2-001 were evaluated in this assay (Figure S6). NCI-60 screens evaluate cells treated for 48 h at 10 µM with a given compound. […] Of high interest, in the NCI-60 screen, Dxr2-017 had relatively high activity against melanoma cell lines, inducing cell death in five cell lines ranging from 25% to 65%, and inhibiting growth in four cell lines ranging from 76% to 96%. Its impact on cell death represented the most striking relative difference in response across cell lines.

[5] = system: cleaved caspase 3; experiment: Western blot for cleaved caspase 3, SK-MEL-5; conditions: up to 20 µM, three days
Description: as §1
We then assessed whether Dxr2-017 induced apoptosis. We treated M14 and SK-MEL-5 cells with Dxr2-017 for three days at concentrations of up 10 and 20 µM, respectively, and measured cleaved caspase 3 using Western blot. […] In this assay, cells were grown in six-well plates and washed prior to lysis, and thus only adherent cells remained. […] Adherent cells are spread out and fusiform shaped, while detached/floating cells are round, as previously reported by us. […]

IC50 ([2]; Homo sapiens, 192 h, M14 melanoma, mean ± SEM of three experiments): 12 nM
SMILES: c1ccc2sc(-c3ccc(CNc4ccc5nnnn5n4)o3)nc2c1 [Dxr2-017]
floating cell population, percentage to total cells [1]: 60.8 ± 10.4%
fold efficacy relative to bone marrow stem cells treated at 40 µM ([2]; M14 IC50 versus eight-day bone marrow treatment at 40 µM): over 2100 fold
cadherin expression [3]: decreased cadherin expression in a concentration-dependent manner
activity in the NCI-60 screen (in words) [4]: activity against HT29, MDA-MB-231, and H226
cleaved caspase 3, adherent and floating cells combined [5]: clear formation was observed
cleaved caspase 3, adherent cells only [5]: did not see any induction of cleaved caspase 3; also recorded: no formation of cleaved caspase 3
